Test results published in patent US7432302B2, “Composition containing polyamine transport inhibitor and use thereof” (MediQuest Therapeutics, Inc., priority 2001, dated 2008).
Like-named read-outs stand apart in the source and are kept apart here.

Assays:
[1] = system: cell growth in the presence of DFMO; assay: Growth inhibition assay in combination with DFMO; assay type: cell-based; settings: 144 h; further: 0.5 µM SPD
Procedure: Medias were obtained from Mediatech, Inc. (Hemdon, Va.) and serums from Gibco BRL (Gaithersburg, Md.). 50 U/ml penicillin, 50 μg/ml streptomycin and 2 mM L-glutamine (all from Bio Whittaker, Walkersville, Md.) were included in all cultures. […] When cells were cultured with polyamines or ORI compounds, 1 mM aminoguanidine (AG; Sigma) was included to inhibit serum amine oxidase activity.

[2] = system: epidermal ornithine decarboxylase activity; settings: topical application of 20 μmole 2 hr after the TPA treatment; cited from earlier work
[3] = molecular target: T1, ornithine decarboxylase (ODC) (Homo sapiens, UniProt P11926); settings: reversible / cofactor-interaction ODC inhibitors, literature; cited from earlier work
T1 sequence (P11926 1-461): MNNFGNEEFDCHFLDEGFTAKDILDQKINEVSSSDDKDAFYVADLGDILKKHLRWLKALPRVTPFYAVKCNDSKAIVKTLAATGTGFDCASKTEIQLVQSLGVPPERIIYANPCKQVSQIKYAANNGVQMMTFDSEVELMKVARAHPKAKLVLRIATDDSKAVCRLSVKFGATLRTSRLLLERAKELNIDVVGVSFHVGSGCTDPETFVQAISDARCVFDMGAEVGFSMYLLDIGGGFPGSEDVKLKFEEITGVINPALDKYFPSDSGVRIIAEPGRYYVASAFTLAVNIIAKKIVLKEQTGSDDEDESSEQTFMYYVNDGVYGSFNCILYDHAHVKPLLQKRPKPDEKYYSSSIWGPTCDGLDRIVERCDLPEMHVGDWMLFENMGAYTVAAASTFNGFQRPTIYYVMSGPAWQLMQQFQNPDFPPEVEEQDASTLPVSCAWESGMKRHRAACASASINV

spermidine synthase = molecular target: T2, spermidine synthase (Homo sapiens, UniProt P19623); settings: cited from earlier work
T2 sequence (P19623 1-302): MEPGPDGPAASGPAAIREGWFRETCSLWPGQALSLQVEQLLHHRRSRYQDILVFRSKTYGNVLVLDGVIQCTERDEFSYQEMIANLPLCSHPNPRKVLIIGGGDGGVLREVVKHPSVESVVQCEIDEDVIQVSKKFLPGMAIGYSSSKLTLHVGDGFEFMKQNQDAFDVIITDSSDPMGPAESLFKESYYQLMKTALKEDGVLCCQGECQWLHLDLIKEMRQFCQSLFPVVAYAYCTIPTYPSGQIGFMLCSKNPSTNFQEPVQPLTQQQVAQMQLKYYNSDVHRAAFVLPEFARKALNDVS

[4] = rats, 10-day treatment with drug in drinking water; cited from earlier work
[5] = system: levels of spermidine or spermine in rat prostate; settings: oral, 0.02% or 0.1% in drinking water; cited from earlier work
hair regrowth = assay: Animal hair growth inhibition assay; assay type: in vivo, mice
fiber growth = settings: sheep treated systemically; cited from earlier work
L1210 leukemia cells = settings: cited from earlier work
cultured follicles = settings: cited from earlier work
[6] = system: cell growth when given with DFMO; assay: EC50 determined as disclosed in Weeks et al. (cell growth when given with DFMO); assay type: cell-based; settings: determined as in Weeks et al. Exp Cell Res. 2000
cultured hair follicles = settings: 50 μM polyamine added to MGBG (10 mM) treated cultured hair follicles; cited from earlier work
[7] = no additional biosynthesis inhibitor (None, or antizyme inducer; agmatine 2%), once a day for 18 days
[8] = mutant L1210 cells with greatly reduced polyamine transport activity
[9] = compound with DFMO at 2%, 70% ethanol, pH 7.0, applied once a day for 18 days

## CC(C)CC(C)NCCCCC(N)C(=O)NCCCNCCCCNCCCN (single isomer, unassigned) [VA21]
[1]; read-out: Ave EC50 Value
  EC50: 650 nM
[1]; read-out: Ave EC50 value
  EC50: 650 nM

## NCCCCCCCN [1,7-diaminoheptane]
[2]
  inhibition of the induction of ODC activity: 90%

## CC(N)CCON (centres unmarked) [1-Aminooxy-3-aminobutane]
[3]
  Ki: 2.8 nM

## NCCCON [1-Aminooxy-3-aminopropane]
[3]
  Ki: 3.2 nM

## CCCCCN [1-pentylamine]
Spermidine synthase; read-out: IC50
  IC50: 3600 nM

## C=CCCCN [5-amino-1-pentene]
Spermidine synthase
  IC50: respectable activity

## NCCCNC1CCCCC1 [APCHA, N-(3-aminopropyl)cyclohexylamine]
[4]
  LD50: > 500 mg/kg
[5]
  levels of spermidine or spermine in rat prostate: significantly reduced levels

## N=C(N)NCCCCN [Agmatine, reference compound]
Hair regrowth; [7]
  % HGI: 30%

## CCCCN [Compound 1-butylamine, 1-butylamine]
Spermidine synthase
  Ki: 520 nM
Spermidine synthase; read-out: IC50
  IC50: 3800 nM

## CC1CCC(N)CC1 (centres unmarked) [Compound 4MCHA, 4-methylcyclohexylamine]
[4]
  LD50: more than 250 mg/kg
[5]
  levels of spermidine or spermine in rat prostate: significantly reduced levels

## NCCC[C@](N)(C(=O)O)C(F)F [DFMO, α-difluoromethylornithine]
Fiber growth
  fiber diameter increase: 14%
  fiber growth decline: 10%
L1210 leukemia cells; [8]
  increase in median survival time: 87%
  mice cured: 13 of 40
L1210 leukemia cells; parental L1210 cell line
  increase in median survival time: 22%
Cultured follicles; in culture media: DFMO 500 μM, N-butyl-1,3-diaminopropane 50 μM
  effect on the growth of cultured follicles: no effect
Hair regrowth; biosynthesis inhibitor alone, compound None (DFMO at 2%; Vaniqua 13.9% DFMO)
  % HGI: 28%

## CCCCCCCCCCCCCCCCCC(=O)NCCCC[C@@H](N)C(=O)NCCCNCCCCNCCCN [IB2]
[1]; read-out: Ave EC50 value
  EC50: 83 nM

## CCCCCCCCCCCCCCCC(=O)NCCCC[C@@H](N)C(=O)NCCCNCCCCNCCCN [IB4]
[1]; read-out: Ave EC50 value
  EC50: 84 nM

## CCCCCCCCC(=O)NCCCC[C@@H](N)C(=O)NCCCNCCCCNCCCN [IB6]
[1]; read-out: Ave EC50 value
  EC50: 2200 nM

## CCCCCCCC(=O)NCCCC[C@@H](N)C(=O)NCCCNCCCCNCCCN [IB7]
[1]; read-out: Ave EC50 value
  EC50: 13000 nM

## CCCCCCC(=O)NCCCC[C@@H](N)C(=O)NCCCNCCCCNCCCN [IB8]
[1]; read-out: Ave EC50 value
  EC50: 3500 nM

## CCCCCC(=O)NCCCC[C@@H](N)C(=O)NCCCNCCCCNCCCN [IB9]
[1]; read-out: Ave EC50 value
  EC50: 12000 nM

## NCCCNCCCCNCCCNC(=O)[C@H](N)CCCCNC(=O)c1ccccc1 [IB24]
[1]; read-out: Ave EC50 value
  EC50: 30000 nM

## NCCCNCCCCNCCCNC(=O)[C@H](N)CCCCNC(=O)c1ccco1 [IB25]
[1]; read-out: Ave EC50 value
  EC50: 10000 nM

## NCCCNCCCCNCCCNC(=O)[C@H](N)CCCCNC(=O)c1ccc(-c2ccccc2)cc1 [IB26]
[1]; read-out: Ave EC50 value
  EC50: 1100 nM

## NCCCNCCCCNCCCNC(=O)[C@H](N)CCCCNC(=O)C(c1ccccc1)c1ccccc1 [IB29]
[1]; read-out: Ave EC50 value
  EC50: 2100 nM

## NCCCNCCCCNCCCNC(=O)[C@H](N)CCCCNC(=O)C12CC3CC(CC(C3)C1)C2 [IB30]
[1]; read-out: Ave EC50 value
  EC50: 2000 nM

## CC(C)C(=O)NCCCC[C@@H](N)C(=O)NCCCNCCCCNCCCN [IB33]
[1]; read-out: Ave EC50 value
  EC50: 8400 nM

## CC(C)(C)C(=O)NCCCC[C@@H](N)C(=O)NCCCNCCCCNCCCN [IB34]
[1]; read-out: Ave EC50 value
  EC50: 8500 nM

## CC(C)(C)CC(=O)NCCCC[C@@H](N)C(=O)NCCCNCCCCNCCCN [IB36]
[1]; read-out: Ave EC50 value
  EC50: 27000 nM

## NCCCNCCCCNCCCNC(=O)[C@H](N)CCCCNC(=O)CC1CC2CCC1C2 (some centres unmarked) [IB37]
[1]; read-out: Ave EC50 value
  EC50: 41000 nM

## CC(C)[C@@H]1CC[C@@H](C)C[C@H]1OCC(=O)NCCCC[C@@H](N)C(=O)NCCCNCCCCNCCCN [IB38]
[1]; read-out: Ave EC50 value
  EC50: 13000 nM

## CCCCNCCCC[C@@H](N)C(=O)NCCCNCCCCNCCCN [IVB3]
[1]; read-out: Ave EC50 Value
  EC50: 2190 nM

## CCCCCCNCCCC[C@@H](N)C(=O)NCCCNCCCCNCCCN [IVB5]
[1]; read-out: Ave EC50 Value
  EC50: 710 nM

## CCCCCCCNCCCC[C@@H](N)C(=O)NCCCNCCCCNCCCN [IVB6]
[1]; read-out: Ave EC50 Value
  EC50: 890 nM

## CC(C)CCNCCCC[C@@H](N)C(=O)NCCCNCCCCNCCCN [IVB21]
[1]; read-out: Ave EC50 Value
  EC50: 1320 nM

## CC(C)(C)CCNCCCC[C@@H](N)C(=O)NCCCNCCCCNCCCN [IVB22]
[1]; read-out: Ave EC50 Value
  EC50: 680 nM

## CC(C)CNCCCC[C@@H](N)C(=O)NCCCNCCCCNCCCN [IVB23]
[1]; read-out: Ave EC50 Value
  EC50: 1790 nM

## CC(C)(C)CNCCCC[C@@H](N)C(=O)NCCCNCCCCNCCCN [IVB24]
[1]; read-out: Ave EC50 Value
  EC50: 1320 nM

## NCCCNCCCCNCCCNC(=O)[C@H](N)CCCCNCC1CC2C=CC1C2 (some centres unmarked) [IVB25]
[1]; read-out: Ave EC50 Value
  EC50: 890 nM

## NCCCNCCCCNCCCNC(=O)[C@H](N)CCCCNCC1CCCCC1 [IVB27]
[1]; read-out: Ave EC50 Value
  EC50: 610 nM

## CC(C)=CCC[C@H](C)CCNCCCC[C@@H](N)C(=O)NCCCNCCCCNCCCN [IVB28]
[1]; read-out: Ave EC50 Value
  EC50: 12800 nM

## NCCCNCCCCNCCCNC(=O)[C@H](N)CCCCNCc1ccc(-c2ccccc2)cc1 [IVB33]
[1]; read-out: Ave EC50 Value
  EC50: 1380 nM

## CC(/C=N/NC(=N)N)=N\NC(=N)N [MGBG, methylglycoxal bis(guanylhydrazone)]
Cultured follicles
  ED50, inhibition of the growth of cultured follicles: ~5000 nM

## CCCCCCCCCCCCCCCC(=O)NCCCC[C@H](N)C(=O)NCCCNCCCCNCCCN [MQT 2]
[6]
  EC50: 44 nM
Hair regrowth; [9]
  % HGI: 97%

## NCCCNCCCCNCCCNC(=O)[C@@H](N)CCCCNCC1CCCCC1 [MQT 3]
[6]
  EC50: 780 nM
Hair regrowth; compound with BHT 0.5%, 70% ethanol, pH 7.0, once a day for 18 days
  % HGI: 68%
Hair regrowth; [9]
  % HGI: 93%

## CC(C)(C)CCNCCCC[C@H](N)C(=O)NCCCNCCCCNCCCN [MQT 4]
[6]
  EC50: 1600 nM
Hair regrowth; [9]
  % HGI: 63%
Hair regrowth; [7]
  % HGI: 66%

## CCCCCCCC(=O)NCCCC[C@H](N)C(=O)NCCCNCCCCNCCCN [MQT 5]
[6]
  EC50: 2200 nM
Hair regrowth; [9]
  % HGI: 47%

## CCCCCCCNCCCC[C@H](N)C(=O)NCCCNCCCCNCCCN [MQT 6]
[6]
  EC50: 380 nM
Hair regrowth; [9]
  % HGI: 79%

## NCCCCCCNCCCCCCNCc1ccc(CNCCCN)cc1 [MQT 7]
Hair regrowth; [7]
  % HGI: 94%

## NCCCCCCNCCCCCNCCN [MQT 8]
Hair regrowth; [7]
  % HGI: 53%

## CCCC(CCC)NCCCC[C@H](N)C(=O)NCCCNCCCCNCCCN [VA26]
[1]; read-out: Ave EC50 Value
  EC50: 4140 nM

## CC(C)[C@@H]1CC[C@@H](C)CC1NCCCC[C@@H](N)C(=O)NCCCNCCCCNCCCN (some centres unmarked) [VB28]
[1]; read-out: Ave EC50 Value
  EC50: 1450 nM

## NC1CCCCC1 [cyclohexylamine]
Spermidine synthase; read-out: IC50
  IC50: 8100 nM

## NC1CC2CCC1C2 (stereo not drawn) [exo-2-aminonorbornane]
Spermidine synthase; read-out: IC50
  IC50: 5500 nM

## NCCCCN [putrescine]
[2]
  inhibition of the induction of ODC activity: 50%

## NCCCCNCCCN [spermidine]
Cultured hair follicles
  recovery of DNA synthesis: Complete recovery of DNA synthesis
[2]
  inhibition of the induction of ODC activity: 90%

## NCCCNCCCCNCCCN [spermine]
Cultured hair follicles
  recovery of DNA synthesis: did not overcome the MGBG-mediated inhibition
[2]
  inhibition of the induction of ODC activity: 90%

## NC1CCC(N)(C(=O)O)CC1 (stereo not drawn) [trans-1,4-diaminocyclohexane-1-carboxylic acid]
[3]
  Ki: 70000 nM

## NC/C=C/C(N)C(=O)O (stereo not drawn) [trans-3-dehydroornithine]
[3]
  Ki: 4400 nM

## C[C@H]1CC[C@H](N)CC1 [trans-4-methylcyclohexylamine]
Spermidine synthase; read-out: IC50
  IC50: 1700 nM

## NCCCC(NN)C(=O)O (stereo not drawn) [α-Hydrazinoornithine]
[3]
  Ki: 500 nM

## C[C@](N)(CCCN)C(=O)O [α-methylornithine]
[3]
  Ki: 40000 nM
